According to patent US20040048807A1, “Angiogenesis inhibitors” (priority 2000, published 2004):

Tests used:
[1] = tested on: BAE cell (endothelial cells of bovine aorta); test: Chemotaxis of BAE cells (collagen-coated chamber, MTT method); type: cell-based; conditions: 2DDR 10 μM + 2DLR 100 μM versus 2DDR 10 μM alone; DMEM + 1% FCS; incubation 4.5 hours
Method: The experimental results of the effect of 2-deoxy-L-ribose on the chemotaxis of BAE cell (endothelial cells of bovine aorta) are shown in FIG. 1. The numbers of inoculated cell 400000, incubation 4.5 hours Chamber coated by type 1 collagen: MTT method From left side, 1: DMEM+1% FCS (fetal calf serum) 2: 1+bFGF (angiogenesis factor) 10 ng/mL, 3: 1+2DDR (2-deoxy-D-ribose) 1 μM 4: 1+2DDR 10 μM 5: 1+2DDR 100 μM 6: 1+2DDR 10 μM+2DLR100 μM The effect of 2DLR ([…]) is obvious from the comparison between the date 4 and 6.

[2] = tested on: KB cells overpressing TP (KB/TP); test: Millipore chamber angiogenesis assay, chamber with KB cells implanted dorsal subcutaneously in mouse; type: in vivo; conditions: for number of angiogenesis (longer than 3 mm, zig-zag pattern): 100 mg/kg/day into abdominal cavity every 12 hours for 4 days, male BALB/c mouse
Method: KB cells overpressing TP (KB/TP) prepared by transfection of […] into KB cells and TP-negative KB cells (KB/CV) prepared by transfection of an empty vector are rinsed by phosphate buffered saline PBS for two times, each 1×10^5 numbers are contained into a Millipore chamber (10 mm diameter, 2 mm thickness, pore size of filter is 0.22 μm) and inserted into dorsal subcutaneous of a male BALB/c mouse of 6-7 weeks age. 2-deoxy-L-ribose (100 mg/kg/day) is administered into abdominal cavity every 12 hours for 4 days. After 4 days from the implanting, the Millipore chamber is removed, and numbers of angiogenesis (longer than 3 mm and showing zig-zag pattern) were counted using a microscope. Results by microscope observation are shown in FIG. 2 (picture A, B, C and D). The number of angiogenesis by KB/TP cell (B) is 4.33 and that of KB/CV cell (B) is 2.67. When 2-deoxy-L-ribose is administereded, that of KB/TP cell (D) becomes to 2.83 and that of […] becomes to 2.83.

KB/TP cells = test: TP-dependent liver metastasis after injection of tumor cells into the spleen; type: in vivo, mouse; conditions: for number of metastatic nodules in liver: KB/TP cell into spleen, 4 weeks, Balb/nude mouse
Method: A Balb/nude mouse of 7-8 weeks age is anesthetized by Nembutal (pentobarbital) and abdomen is slightly incised so as to observe the spleen. 1×10^5 numbers of KB/CV cells or KB/TP cells used in Example 2 is injected into the spleen. After one minute, the spleen is excised and the incised position is sutured. 2-deoxy-L-ribose (100 mg/kg/day) is injected to subcutaneous by two times (morning and evening) every day or one time every other day. To the control group, same amount of physiological saline is injected. After 4 weeks from therapy starting, abdomen is incised, the liver is excised and the number of metastatic nodules are counted. […] The number of metastatic lesions of KB/TP cell is obviously larger than those of KB/CV cell.

For O=CC[C@@H](O)[C@@H](O)CO [2-deoxy-L-ribose], the “effect on the chemotaxis of BAE cell” value [1] was “obvious”, the “suppression of the angiogenesis by TP” value ([2]; 100 mg/kg/day into abdominal cavity for 4 days, overall conclusion) was “perfectly supressing the angiogenesis by TP” and the “number of angiogenesis (longer than 3 mm, zig-zag pattern)” value ([2]; KB/TP cell (D)) was 2.83. The “number of angiogenesis (longer than 3 mm, zig-zag pattern)” value ([2]; KB/TP cell (E) as printed) was 2.83, the “suppression of TP-dependent metastasis of tumor from spleen to liver” value (KB/TP cells; 100 mg/kg/day subcutaneous, overall conclusion) was “perfectly suppressing the TP-dependent metastasis of tumor from spleen to liver” and the “number of metastatic nodules in liver” value (KB/TP cells; 100 mg/kg/day subcutaneous one time every other day) was “smaller than the number of metastatic nodules of KB/CV cell”. For the same compound, the “number of metastatic nodules in liver” value (KB/TP cells; 100 mg/kg/day subcutaneous two times (morning and evening) every day (LR)) was “smaller than the number of metastatic nodules of KB/CV cell”.
